Results published in PubChem BioAssay (NCI).
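Tested at 5 concentrations; 48 h exposure; 96-well plates; endpoints linearly interpolated, else capped at highest concentration. At the GI50, growth is halved. TGI marks complete inhibition of growth.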

How the values were obtained:
Experiment in all cases: growth of human tumour cells (NCI), 48 h
[1] = system: SF-268 CNS
[2] = system: SF-539 CNS
[3] = system: CAKI-1 renal
[4] = system: HL-60(TB) leukemia
[5] = system: NCI-H226 lung
[6] = system: KM20L2 colon
[7] = system: UACC-62 melanoma
[8] = system: LXFL 529 NSCLC
[9] = system: NCI/ADR-RES ovarian
[10] = system: PC-3 prostate

| Structure (SMILES) | TGI [1] [µM] | TGI [2] [µM] | TGI [3] [µM] | TGI [4] [µM] | TGI [5] [µM] | TGI [6] [µM] | TGI [7] [µM] | TGI [8] [µM] | TGI [9] [µM] | TGI [10] [µM] | GI50 [1] [µM] | GI50 [8] [µM] | GI50 [2] [µM] | GI50 [3] [µM] | GI50 [5] [µM] | GI50 [6] [µM] | GI50 [7] [µM] | GI50 [9] [µM] | GI50 [4] [µM] | GI50 [10] [µM] |
| --- | --- | --- | --- | --- | --- | --- | --- | --- | --- | --- | --- | --- | --- | --- | --- | --- | --- | --- | --- | --- |
| C=CCC1(C)CCCCC1(O)CS(=O)c1ccccc1 (configuration not stated) | > 100 | > 100 | > 100 | > 100 | > 100 | > 100 | > 100 | – | – | – | – | – | – | – | – | – | – | – | – | – |
| Nc1ccc(C2=N/C(=C\c3cccc(N)c3)C(=O)O2)cc1 | > 100 | > 100 | > 100 | > 100 | – | > 100 | > 100 | > 100 | – | – | – | – | – | – | – | – | – | – | – | – |
| COc1cc(-c2nnc3n2NC=C(C(=O)O)S3)cc(OC)c1OC | > 100 | > 61.4 | > 100 | > 73.4 | > 100 | > 100 | > 100 | > 100 | – | – | – | – | – | – | – | – | – | – | – | – |
| Cc1ccc2c(c1-c1ccccc1)C(=O)OC2 | > 100 | – | > 100 | > 100 | > 100 | 60.7 | 92.8 | > 100 | – | – | – | – | – | – | – | – | – | – | – | – |
| CCOC(=O)C1=C(Nc2ccc(Br)cc2)OCC1=O | > 100 | > 100 | > 100 | 33.9 | > 100 | > 100 | > 100 | > 100 | – | – | – | – | – | – | – | – | – | – | – | – |
| CS(=O)(=O)CS(=O)(=O)OCCCl | 990 | 266 | 799 | 541 | 785 | 1240 | 268 | – | 1960 | 990 | – | – | – | – | – | – | – | – | – | – |
| NC(=S)N/N=C1\CCCC\C1=C/c1ccccc1 | > 100 | > 100 | – | 4.74 | – | > 100 | > 100 | > 100 | – | – | – | – | – | – | – | – | – | – | – | – |
| COC(=O)c1c[nH]cc1CCCCc1c[nH]cc1C(=O)OC | > 100 | > 100 | > 100 | > 100 | > 100 | > 100 | – | – | – | – | – | – | – | – | – | – | – | – | – | – |
| Cc1c(Cl)cccc1NC(=O)c1cccc([N+](=O)[O-])c1O | > 100 | 40.6 | > 64.1 | > 49.4 | 56.3 | 54.3 | 7.74 | > 75.1 | – | – | – | – | – | – | – | – | – | – | – | – |
| CCc1cccc(C)c1NC(=O)CC1C(=O)Nc2ccccc2S1=O (configuration not stated) | > 100 | 79.2 | > 100 | 74.9 | > 100 | 90.4 | – | > 100 | – | – | – | – | – | – | – | – | – | – | – | – |
| CC(C)(C)OC(=O)N1C2CCCC23O[C@@H]1c1cc2c(cc1C3=O)OCO2 (some centres not stated) | > 100 | 55.4 | 87.1 | 38.3 | > 100 | – | 67 | > 100 | – | – | – | – | – | – | – | – | – | – | – | – |
| CCOC(=O)C(C)(c1c(C)[nH]c2ccccc12)c1c(C)[nH]c2ccccc12 | – | 39.1 | 45.4 | 37.6 | 32.9 | 31 | 29.6 | 77.3 | – | – | – | – | – | – | – | – | – | – | – | – |
| CCC[CH2][Sn]1([CH2]CCC)[O]CC(COc2c(Cl)cc(Cl)cc2Cl)[O]1 (configuration not stated) | 2.68 | 3.43 | 1.65 | 0.673 | 3.82 | 10.7 | 2.86 | 1.58 | – | – | 1.15 | 0.375 | 1.64 | 0.511 | 1.82 | 2.98 | 1.48 | – | – | – |
| COc1cc(/C=C/C(=O)C(C(=O)/C=C/c2ccc(OC(=O)CCNC34CC5CC(CC(C5)C3)C4)c(OC)c2)C(=O)CCNC23CC4CC(CC(C4)C2)C3)ccc1OC(=O)CCNC12CC3CC(CC(C3)C1)C2 (configuration not stated) | 10.9 | 5.01 | > 100 | 4.36 | 12.5 | – | 13.3 | – | 90.2 | 25.1 | 2.7 | – | 2.27 | 5.72 | 3.21 | – | 3.37 | 4.82 | 1.95 | 3.86 |
| O=[N+]([O-])c1ccc(Sc2c3ccccc3nc3ccccc23)cn1 | 52.4 | > 20.5 | 11.7 | > 61.7 | > 100 | – | 35 | – | > 100 | 38.1 | – | – | – | – | – | – | – | – | – | – |
| CC(=O)NC1CONC1=O (configuration not stated) | > 100 | > 100 | > 100 | > 100 | > 100 | – | > 100 | – | > 100 | > 100 | – | – | – | – | – | – | – | – | – | – |
| C=C(C)[C@@H]1CC[C@]2(C)[C@H](CC[C@@H]3[C@@H]([C@@](C)(O)CCC=C(C)C)CC[C@]32C)[C@@]1(C)CCC(=O)O | 32.8 | 29.9 | 27.7 | 54.5 | 37.3 | – | 29.5 | – | 41.3 | 27.2 | 16.1 | – | 16 | 13.9 | 18.1 | – | 13.9 | 20.2 | 20.6 | 11.3 |
| COC(=O)C(=O)CC(=O)c1cccc(OC)c1 | > 100 | > 100 | > 100 | > 100 | > 100 | – | > 100 | – | > 100 | > 100 | – | – | – | – | – | – | – | – | – | – |
| COc1cc(/C=C/C(=O)Oc2ccccc2)ccc1C(=O)O/C=C/c1ccccc1 | > 100 | > 100 | > 100 | > 100 | > 100 | > 100 | > 100 | – | > 100 | > 100 | – | – | – | – | – | – | – | – | – | – |
| N#Cc1c(-c2ccco2)cc(-c2ccc(N)cc2)[nH]c1=O | > 100 | > 100 | – | > 100 | > 100 | > 100 | > 100 | > 100 | – | – | – | – | – | – | – | – | – | – | – | – |
| COc1cc2c3c(n(CCCN(CCO)CCO)c(=O)c2cc1OC)-c1cc2c(cc1C3=O)OCO2 | 7.26 | < 0.0264 | < 0.018 | 2.29 | 0.724 | – | 0.503 | – | – | 2.12 | < 0.0332 | – | < 0.01 | < 0.01 | 0.0377 | – | < 0.01 | 0.117 | < 0.01 | – |
| CCOC(=O)C1=C(N)Oc2c(sc3c(C)cccc23)C1c1ccc(F)cc1 (configuration not stated) | 19.4 | 3.48 | 14.9 | 4.62 | 10.6 | – | 13.5 | – | 14.5 | 14.8 | 1.61 | – | 0.36 | 0.413 | 0.579 | – | 0.399 | 0.384 | 0.374 | 0.496 |
| C[P+](C)(C)c1ccccc1 | > 100 | > 100 | > 100 | > 100 | > 100 | > 100 | > 100 | > 100 | – | – | – | – | – | – | – | – | – | – | – | – |
